Our source for the GI50 and TGI values is PubChem BioAssay (NCI).

Some test systems named below: KM12 colon; EKVX NSCLC; SR leukemia; HL-60(TB) leukemia; SF-268 CNS; CAKI-1 renal; RPMI-8226 leukemia; U251 CNS; A549 NSCLC; NCI-H460 lung.
Common to all, as to test: NCI-60 cell line screen, 48 h

Values joined by “and” are separate entries in the source; they are usually repeats but may differ in a detail not shown here. Identical values can stand only once.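 Five compound concentrations were applied to cells in 96-well plates for 48 hours; endpoints were derived by simple linear interpolation of the resulting dose-response curve. Abbreviation: GI50, concentration required for 50% inhibition of growth. TGI marks complete inhibition of growth.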

In the case of `Cc1cccc(NC(=O)Cn2cnc3sc(C(=O)OC(C)C)c(C)c3c2=O)c1`, the GI50 in the test with KM12 colon is 30.3 µM; with EKVX NSCLC, 7.51 µM; with SR leukemia, over 50 µM; with HL-60(TB) leukemia, over 50 µM; in the test with SF-268 CNS it was 18.8 µM; in the test with CAKI-1 renal, 45.9 µM. Also, the GI50 in the test with RPMI-8226 leukemia is over 50 µM; with U251 CNS, 12.6 µM; in the test on A549 NSCLC it was 16.4 µM; with NCI-H460 lung, 25.2 µM. Further, the TGI is over 50 µM in the test with KM12 colon; 22.4 µM with EKVX NSCLC; over 50 µM in the test with SR leukemia; over 50 µM in the test with HL-60(TB) leukemia; over 50 µM in the test on SF-268 CNS; over 50 µM in the test with CAKI-1 renal. Further, the TGI is over 50 µM in the test on RPMI-8226 leukemia, 31 µM in the test on U251 CNS, over 50 µM in the test with A549 NSCLC and over 50 µM with NCI-H460 lung.
Take `NC1(C(=O)OCc2ccccc2)CCCC1`: the TGI is over 100 µM in the test on KM12 colon; 59.3 µM in the test with EKVX NSCLC; over 100 µM in the test on SR leukemia; 54.5 µM in the test on HL-60(TB) leukemia; 31.4 µM in the test with SF-268 CNS; 47.5 µM with CAKI-1 renal. Moreover, the TGI in the test with RPMI-8226 leukemia was 68.2 µM; in the test with U251 CNS it was 40.3 µM; in the test with A549 NSCLC it was over 100 µM; with NCI-H460 lung, over 100 µM.
For the compound `CCCCCCCC(=O)SCC/C=C/[C@@H]1CC(=O)NCc2cc(ccn2)C2=N[C@@](C)(CS2)C(=O)N[C@@H](C(C)C)C(=O)O1`, the GI50 with KM12 colon is 0.0169 µM; in the test with EKVX NSCLC, 0.0376 µM; in the test with SR leukemia it was 0.00845 µM; in the test on HL-60(TB) leukemia it was 0.0242 µM; in the test on SF-268 CNS, 0.0387 µM; with CAKI-1 renal it was 0.104 µM. Moreover, the GI50 in the test with RPMI-8226 leukemia is 0.116 µM; in the test on U251 CNS, 0.0291 µM; in the test on A549 NSCLC it was 0.0116 µM; with NCI-H460 lung, 0.00754 µM. For the same compound, the TGI in the test on KM12 colon was 2.41 µM; with EKVX NSCLC it was over 33.3 µM; in the test on SR leukemia it was over 33.3 µM; with HL-60(TB) leukemia it was over 33.3 µM; in the test with SF-268 CNS it was over 9.59 µM; with CAKI-1 renal, 0.665 µM. For the same compound, the results for the TGI in the test on RPMI-8226 leukemia, in the test with U251 CNS and in the test on NCI-H460 lung were over 33.3 µM, 0.309 µM and over 11.3 µM, respectively.
Turning to `O=C(CCc1nnc2sc(-c3ccc(Cl)cc3Cl)nn12)c1nc2ncccc2[nH]1`, the GI50 was 1.83 µM in the test on KM12 colon; 2.71 µM in the test with EKVX NSCLC; 1.9 µM with SR leukemia; 2.91 µM in the test with HL-60(TB) leukemia; 3.99 µM in the test on SF-268 CNS; 1.42 µM in the test with CAKI-1 renal. Also, the GI50 is 1.8 µM in the test with RPMI-8226 leukemia, 1.92 µM in the test with U251 CNS, 2.78 µM with A549 NSCLC and 1.89 µM in the test with NCI-H460 lung. The TGI in the test on KM12 colon is 3.56 µM; with EKVX NSCLC, 7.98 µM; with SR leukemia, over 100 µM; with HL-60(TB) leukemia, 12.8 µM; with SF-268 CNS it was 21.4 µM; in the test on CAKI-1 renal, 3.15 µM. The TGI in the test with RPMI-8226 leukemia came to 7.59 µM; with U251 CNS, 3.67 µM; in the test on A549 NSCLC it was 10.4 µM; in the test with NCI-H460 lung it was 3.64 µM.
For `O=c1c2sccc2n(CC2COc3ccccc3O2)c(=O)n1O` (centres undefined), the GI50 in the test with KM12 colon was 9.21 µM; in the test with EKVX NSCLC it was 35.3 µM; in the test on SR leukemia it was 8.1 µM; in the test with HL-60(TB) leukemia it was 16.9 µM; in the test on SF-268 CNS, 13.6 µM; in the test with CAKI-1 renal it was 20.1 µM. Also, the GI50 in the test on RPMI-8226 leukemia was 3.9 µM; in the test with U251 CNS, 7.52 µM; with A549 NSCLC, 23.3 µM; in the test with NCI-H460 lung, 4.66 µM. For the same compound, the TGI in the test on KM12 colon is 86 µM; in the test with EKVX NSCLC it was over 100 µM; in the test with SR leukemia, over 100 µM; in the test on HL-60(TB) leukemia it was 44.7 µM; in the test on SF-268 CNS, over 100 µM; in the test with CAKI-1 renal, 97.3 µM. For the same compound, the TGI was 24.5 µM with RPMI-8226 leukemia, over 100 µM in the test on U251 CNS, over 100 µM in the test on A549 NSCLC and 41.8 µM in the test on NCI-H460 lung.
As for `CC[C@H](Nc1ncnc2nc[nH]c12)c1oc2ccccc2c(=O)c1-c1cccc(F)c1`, the GI50 in the test with KM12 colon was 23.7 µM; in the test on EKVX NSCLC it was 31.8 µM; in the test on SR leukemia, 11.5 µM; in the test with HL-60(TB) leukemia, 11 µM; in the test with SF-268 CNS it was 22.6 µM; in the test with CAKI-1 renal, 14.7 µM. Moreover, the GI50 with RPMI-8226 leukemia was 14.5 µM; with U251 CNS it was 32.2 µM; in the test with A549 NSCLC, 29.2 µM; in the test with NCI-H460 lung, 18.8 µM. In addition, the TGI in the test with KM12 colon was over 100 µM; in the test with EKVX NSCLC it was over 100 µM; with SR leukemia, 50 µM; in the test with HL-60(TB) leukemia, 42.5 µM; in the test on SF-268 CNS it was over 100 µM; in the test on CAKI-1 renal, over 100 µM. Besides, the TGI was over 100 µM with RPMI-8226 leukemia, over 100 µM in the test with U251 CNS, over 100 µM in the test with A549 NSCLC and 58.8 µM with NCI-H460 lung.
For the compound `CN(C)CCSC1=Nc2ccc(Cl)cc2C(c2ccccc2Cl)=NC1`, the GI50 is 16.5 µM and 44.1 µM in the test with KM12 colon; 14.8 µM and 43.4 µM in the test on EKVX NSCLC; 6.68 µM and 42 µM in the test with SR leukemia; 13.9 µM and 99.4 µM in the test with SF-268 CNS; 15.1 µM and 79.5 µM in the test with CAKI-1 renal; 16.2 µM and 49.4 µM with RPMI-8226 leukemia. Moreover, the GI50 with U251 CNS was 13.6 µM and 89.5 µM; in the test with A549 NSCLC, 13.8 µM and 88.8 µM; in the test with NCI-H460 lung, 14.9 µM and 68.1 µM. For the same compound, the TGI in the test on KM12 colon was 34.3 µM and > 100 µM; with EKVX NSCLC, 29.9 µM and > 100 µM; in the test on SR leukemia, over 100 µM; in the test with HL-60(TB) leukemia, 66.5 µM and 80.4 µM; in the test with SF-268 CNS, 28.2 µM and > 100 µM; with CAKI-1 renal it was 31.5 µM and > 100 µM. Besides, the TGI was 40.6 µM and > 100 µM with RPMI-8226 leukemia; 28.1 µM and > 100 µM in the test with U251 CNS; 31.7 µM and > 100 µM with A549 NSCLC; 30.7 µM and > 100 µM with NCI-H460 lung.
In the case of `Nc1ncnc2c1nnn2C1OC(CO)C(O)C1O` (centres undefined), the TGI in the test on KM12 colon was 6.68 µM; in the test with EKVX NSCLC, 27.5 µM; in the test with SR leukemia, over 12.7 µM; with HL-60(TB) leukemia it was 2.16 µM; with SF-268 CNS, 18.8 µM; in the test with CAKI-1 renal it was 2.88 µM. Besides, the TGI in the test on RPMI-8226 leukemia was 5.71 µM; with U251 CNS, 37.8 µM; with A549 NSCLC, 19.2 µM; in the test with NCI-H460 lung, 5.64 µM. The GI50 in the test with SR leukemia is 0.049 µM.
